One data set has as its target B-Raf (Homo sapiens, UniProt P15056). The experiment in a line: Raf kinase assay (Kinase HotSpot, Reaction Biology Corp.). It is filed as biochemical. The method, then:
(§1) Compounds were delivered into each Raf reaction, followed ∼20 min later by addition of a mixture of ATP and [γ-^33P-ATP] (specific activity approx. 500 cpm/pmol, concentration as required) to a final concentration of 10 µM. After incubation for 40 min at 25 °C, the reaction was stopped by the addition of a 3% phosphoric acid solution. Then, the reaction was spotted onto a P30 filtermat, and unbound phosphate was removed by washing three times for 5 min in 75 mM phosphoric acid and once in methanol prior to drying and scintillation counting. […] IC50 values and curve fits were obtained using Prism (GraphPad Software, La Jolla, CA).

A further data set deals with C-Raf (Homo sapiens, UniProt P04049). The description is as above. It is filed as biochemical. As to conditions: for inhibition at 1 µM: read-out: Inhibition (%) C-Raf. As to the method:
as §1

The target in a further data set is B-Raf (V600E) (Homo sapiens, UniProt P15056, V600E). Described as above. It is filed as biochemical. The method, then:
as §1

A further data set relates to HepG2. Nature of the data set: Cell proliferation assay (MTT). Format: cell-based. As to conditions: Homo sapiens, 48 h, mean ± SEM of three independent experiments, read-out: Cancer cell proliferation IC50 HepG2. As to the method: (§2) Hepatocellular carcinoma cell lines (HepG2, Huh7), human pancreatic ductal epithelial cell line (H6c7), and normal human colon cell line (CCD841) were obtained from the American Type Culture Collection (ATCC) (Manassas, VA, USA). Cells were cultured in DMEM/High Glucose media (Hep3B, Huh7, CCD841) or MEM/EBSS media (HepG2) containing 10% FBS, 100 IU/ml of penicillin and 100 µg/ml of streptomycin. H6c7 cells were cultured in keratinocyte serum free media supplemented with epidermal growth factor and bovine pituitary extract. Cells were maintained in 5% CO2 humidified atmosphere at 37 °C.
(§3) Cells were seeded in a 96-well plate and allowed to adhere for 24 h. The cells were serum starved in 1% serum containing medium for 12 h, and then treated with drugs in 10% serum-containing medium. After incubation for 48 h, cell proliferation was measured using MTT assay. Optical density was measured at 540 nm using a Spectrostar Nano microplate reader (BMG LABTECH GmbH, Ortenberg, Germany).

A further data set concerns Huh7. Nature of the data set: Cell proliferation assay (MTT). Format: cell-based. As to conditions: Homo sapiens, Huh-7, 48 h, mean ± SEM of three independent experiments, read-out: Cancer cell proliferation IC50 Huh7. As to the method:
as §2, §3

A further data set concerns Hep3B. The experiment in a line: Cell proliferation assay (MTT). Format: cell-based. The following applies: Homo sapiens, 48 h, mean ± SEM of three independent experiments, read-out: Cancer cell proliferation IC50 Hep3B. As to the method:
as §2, §3

Another data set concerns the target T1, A-Raf (Homo sapiens, UniProt P10398).
T1 sequence (P10398 1-606): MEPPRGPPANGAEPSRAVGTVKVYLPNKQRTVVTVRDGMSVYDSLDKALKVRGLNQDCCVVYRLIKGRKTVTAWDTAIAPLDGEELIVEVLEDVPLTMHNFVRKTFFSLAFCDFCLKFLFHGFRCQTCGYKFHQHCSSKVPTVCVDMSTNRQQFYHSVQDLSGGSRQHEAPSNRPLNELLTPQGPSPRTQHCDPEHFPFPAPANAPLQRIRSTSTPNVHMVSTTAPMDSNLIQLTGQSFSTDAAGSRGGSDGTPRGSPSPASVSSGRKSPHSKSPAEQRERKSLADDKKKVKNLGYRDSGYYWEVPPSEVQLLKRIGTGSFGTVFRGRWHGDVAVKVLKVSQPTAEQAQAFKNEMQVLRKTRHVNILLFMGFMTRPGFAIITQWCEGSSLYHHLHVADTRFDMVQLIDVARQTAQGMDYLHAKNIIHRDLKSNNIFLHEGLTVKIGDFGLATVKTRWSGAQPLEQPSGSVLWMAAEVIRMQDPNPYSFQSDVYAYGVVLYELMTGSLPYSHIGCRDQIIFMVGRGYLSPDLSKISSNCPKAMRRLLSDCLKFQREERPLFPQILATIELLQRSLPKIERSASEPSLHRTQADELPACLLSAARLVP
Nature of the data set: Raf kinase assay (Kinase HotSpot, Reaction Biology Corp.). It is filed as biochemical. As to conditions: for inhibition at 1 µM: fixed concentration 1 μM, mean of two independent experiments. The method, then:
Compounds were delivered into each Raf reaction, followed ∼20 min later by addition of a mixture of ATP and [γ-^33P-ATP] (specific activity approx. 500 cpm/pmol, concentration as required) to a final concentration of 10 µM. […] Then, the reaction was spotted onto a P30 filtermat, and unbound phosphate was removed by washing three times for 5 min in 75 mM phosphoric acid and once in methanol prior to drying and scintillation counting. […] IC50 values and curve fits were obtained using Prism (GraphPad Software, La Jolla, CA).

Another data set concerns Hep3B cells. The experiment in a line: Sphere formation assay. Format: cell-based. The following applies: Homo sapiens, 48 h drug treatment, 13 days culture, read-out: % Inhibition of sphere forming Hep3B. As to the method: (§4) Sphere forming ability of Hep3B and Huh7 cells were examined after incubation with drugs for 48 h. Briefly, 3 × 10^3 cells which were pre-treated with or without drugs in prEGM media (Lonza, Basel, Switzerland) were seeded on an ultra-low adhering 24 well plate (Corning Incorporated Costar, Corning, NY). Twice a week, 500 µL of used medium was replaced with fresh prEGM media. At 13 days after plating, images of spheres were captured using Celloger Mini (Curiosis Inc., Seoul, South Korea). The number of spheroids over 50 µm in diameter was counted by using Image J software (National Institute of Health, Bethesda, MD).

In a further data set the test system is Huh7 cells. The experiment in a line: Sphere formation assay. Format: cell-based. As to conditions: Homo sapiens, Huh-7, 48 h drug treatment, 13 days culture, read-out: % Inhibition of sphere forming Huh7. The method, then: as §4
The target of the next data set is T2, VEGFR-2 tyrosine kinase (Homo sapiens, UniProt P35968).
T2 construct: purchased Promega
The experiment in a line: VEGFR-2 (KDR) kinase assay (ADP-glow). As to conditions: fixed concentration 1 µM; read-out: inhibitory activity against VEGFR-2 tyrosine kinase. Format: biochemical. (In general: ADP-Glo turns the ADP formed in a reaction into a luminescent signal.)

Data set [1] can be described thus: Cytotoxicity assay (MTT), normal cells. Format: cell-based, human. As to conditions: human, mean ± SEM. As to the method:
as §2
(§5) Cells were seeded in a 96-well plate and allowed to adhere for 24 h. Cells in low serum (1%)-containing medium were treated with drugs for 48 h. In case of H6c7 cells, cells in keratinocyte serum free media were treated with drugs for 48 h. Then, cell viability was measured using MTT assay. Optical density was measured at 540 nm using a Spectrostar Nano microplate reader (BMG LABTECH).

The test system of data set [2] is Huh7 cells xenografted onto CAM. The experiment in a line: Huh7-xenografted CAM tumour model. As to conditions: 10 µM final concentration on CAM; Huh7 xenograft. Format: in vivo, chick. The method, then: Cancer cell xenograft onto chick chorioallantoic membrane (CAM), an in vivo tumour model, was used to evaluate anti-tumour efficacy of compounds. Fertilised chicken eggs purchased from Byeolbichon Farm (Gyeongbuk, South Korea) were incubated at 37 °C with 55% relative humidity. On day 9 of egg incubation (embryonic day 9, E9), a small hole was made in the shell over the air sac after the selection of bifurcated vessels. Another hole was made on the broadside using a needle by applying negative pressure from the wider part, creating false air sac. Using a grinding wheel (Dremel, Racine, WI), a small window (1 cm^2) was created in the eggshell above the false air sac. For generation of xenograft CAM tumour model, Huh7 cells (1.5 × 10^6 cells/CAM) were inoculated on the CAM with or without test drugs (10 µM final concentration). On day 13 of egg incubation (E13), tumour tissues attached to CAM were resected from the embryo and harvested. Photographs of tumour as well as blood vessel branches were taken using optical microscope (Olympus Corporation, Tokyo, Japan). Tumour tissues were weighted and the number of vessel branch points within the tumour region was counted.

The next data set deals with H6c7. Nature of the data set: Cytotoxicity assay (MTT), normal cells. It is filed as cell-based, human. The following applies: normal pancreatic ductal epithelial cell line, 48 h, mean ± SEM. As to the method: as §2, §5
The subject of the next data set is CCD841. Nature of the data set: Cytotoxicity assay (MTT), normal cells. Format: cell-based, human. As to conditions: normal colon epithelial cell line, 48 h, mean ± SEM. As to the method: as §2, §5
Where [3] appears, read: fixed concentration 1 μM, mean of two independent experiments.
Setting [4] is: CCD841 cells (normal colon epithelial cell line).
Setting [5] is: H6c7 cells (normal pancreatic ductal epithelial cell line).

Each structure is given as a SMILES string. Read-outs that look alike come from different tables or passages of the source.

Sequence of C-Raf (P04049 whole entry): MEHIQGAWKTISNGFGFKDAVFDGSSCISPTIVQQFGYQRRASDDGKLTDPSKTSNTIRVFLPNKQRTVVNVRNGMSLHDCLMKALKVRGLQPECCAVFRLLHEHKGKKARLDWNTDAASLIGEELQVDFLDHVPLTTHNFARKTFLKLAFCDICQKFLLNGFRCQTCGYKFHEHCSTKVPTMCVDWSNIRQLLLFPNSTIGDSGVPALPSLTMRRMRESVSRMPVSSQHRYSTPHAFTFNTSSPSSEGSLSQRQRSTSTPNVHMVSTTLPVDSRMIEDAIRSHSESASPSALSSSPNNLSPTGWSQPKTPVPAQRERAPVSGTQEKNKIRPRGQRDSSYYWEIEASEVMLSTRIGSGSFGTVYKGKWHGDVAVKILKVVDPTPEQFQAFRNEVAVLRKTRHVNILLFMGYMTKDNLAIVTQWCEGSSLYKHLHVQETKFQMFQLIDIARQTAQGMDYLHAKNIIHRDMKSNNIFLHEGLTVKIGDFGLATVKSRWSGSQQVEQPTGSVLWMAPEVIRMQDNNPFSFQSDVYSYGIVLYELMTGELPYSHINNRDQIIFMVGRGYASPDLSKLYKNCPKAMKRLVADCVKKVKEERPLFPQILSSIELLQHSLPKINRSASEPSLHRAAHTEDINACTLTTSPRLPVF
Sequence of B-Raf (V600E) (P15056 whole entry V600E): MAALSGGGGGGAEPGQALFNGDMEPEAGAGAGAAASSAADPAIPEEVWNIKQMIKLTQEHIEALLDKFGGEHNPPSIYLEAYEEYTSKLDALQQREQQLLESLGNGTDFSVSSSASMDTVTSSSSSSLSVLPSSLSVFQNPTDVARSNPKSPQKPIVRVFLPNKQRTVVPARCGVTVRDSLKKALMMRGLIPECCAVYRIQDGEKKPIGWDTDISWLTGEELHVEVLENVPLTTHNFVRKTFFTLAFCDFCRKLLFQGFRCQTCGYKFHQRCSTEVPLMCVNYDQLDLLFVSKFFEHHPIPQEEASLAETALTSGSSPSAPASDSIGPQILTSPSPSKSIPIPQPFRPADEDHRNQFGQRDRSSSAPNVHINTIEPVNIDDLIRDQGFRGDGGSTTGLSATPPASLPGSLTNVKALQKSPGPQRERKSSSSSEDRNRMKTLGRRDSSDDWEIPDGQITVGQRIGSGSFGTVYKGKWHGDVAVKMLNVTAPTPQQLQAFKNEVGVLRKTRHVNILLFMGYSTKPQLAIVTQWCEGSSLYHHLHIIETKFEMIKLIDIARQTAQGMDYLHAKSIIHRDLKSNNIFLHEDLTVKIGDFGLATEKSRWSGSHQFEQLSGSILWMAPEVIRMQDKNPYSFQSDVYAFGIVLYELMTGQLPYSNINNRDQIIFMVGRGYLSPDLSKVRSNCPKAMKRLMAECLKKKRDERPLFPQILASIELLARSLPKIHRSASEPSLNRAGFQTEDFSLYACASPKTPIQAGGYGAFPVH
Sequence of B-Raf (P15056 whole entry): as the sequence (P15056 whole entry V600E) above, with E600V counted along it
T2 sequence (P35968 20-1356): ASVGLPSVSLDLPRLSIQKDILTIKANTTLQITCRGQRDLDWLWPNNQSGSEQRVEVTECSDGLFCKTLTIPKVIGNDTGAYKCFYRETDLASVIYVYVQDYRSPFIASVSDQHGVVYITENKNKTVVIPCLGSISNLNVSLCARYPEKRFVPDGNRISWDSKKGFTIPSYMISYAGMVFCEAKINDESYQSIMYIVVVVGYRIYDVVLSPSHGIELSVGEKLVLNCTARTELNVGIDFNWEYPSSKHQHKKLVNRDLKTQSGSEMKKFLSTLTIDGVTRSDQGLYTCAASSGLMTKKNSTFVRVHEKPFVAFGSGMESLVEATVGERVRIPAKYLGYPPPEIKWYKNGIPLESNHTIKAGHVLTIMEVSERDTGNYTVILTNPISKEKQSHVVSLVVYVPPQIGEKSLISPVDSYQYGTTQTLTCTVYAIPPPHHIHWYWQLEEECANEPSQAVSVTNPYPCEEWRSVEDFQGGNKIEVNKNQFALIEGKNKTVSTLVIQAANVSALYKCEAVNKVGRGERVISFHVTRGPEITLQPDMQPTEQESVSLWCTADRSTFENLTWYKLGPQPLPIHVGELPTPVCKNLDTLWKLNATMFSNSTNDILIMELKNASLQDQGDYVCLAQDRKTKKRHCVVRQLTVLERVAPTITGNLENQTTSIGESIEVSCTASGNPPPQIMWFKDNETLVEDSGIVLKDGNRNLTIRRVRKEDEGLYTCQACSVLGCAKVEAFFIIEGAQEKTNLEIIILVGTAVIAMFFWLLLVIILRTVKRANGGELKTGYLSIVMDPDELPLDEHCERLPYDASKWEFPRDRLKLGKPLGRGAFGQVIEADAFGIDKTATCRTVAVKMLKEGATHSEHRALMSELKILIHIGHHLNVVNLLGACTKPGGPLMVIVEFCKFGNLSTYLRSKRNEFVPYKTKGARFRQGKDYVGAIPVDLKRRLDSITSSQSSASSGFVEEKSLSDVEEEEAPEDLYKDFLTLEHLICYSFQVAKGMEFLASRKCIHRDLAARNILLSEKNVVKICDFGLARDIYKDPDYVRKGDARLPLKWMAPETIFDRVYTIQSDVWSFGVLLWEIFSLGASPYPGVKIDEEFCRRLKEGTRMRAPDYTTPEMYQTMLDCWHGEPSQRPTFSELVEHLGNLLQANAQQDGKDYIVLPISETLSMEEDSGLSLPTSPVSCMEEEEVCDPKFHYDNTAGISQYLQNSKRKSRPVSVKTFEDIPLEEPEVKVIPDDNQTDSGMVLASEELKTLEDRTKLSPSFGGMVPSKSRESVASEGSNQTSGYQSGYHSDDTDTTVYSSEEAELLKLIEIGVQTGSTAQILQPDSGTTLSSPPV

For orientation: melting point means the temperature, or range, at which the solid turns liquid. By CC50 is commonly meant the concentration giving 50% cytotoxicity. Read a low CC50 as greater toxicity to the cells. `CNC(=O)c1cc(Oc2c(C)nc(NC(=O)Nc3cccc(C(F)(F)F)c3)c(C)c2C)ccn1` [Compound 6, N-Methyl-4-((2,4,5-trimethyl-6–(3-(3-(trifluoromethyl)phenyl)ureido)pyridin-3-yl)oxy)picolinamide] returned a melting point of 244 °C. Further, the inhibition at 1 µM against B-Raf (setting [3]) is 65%. Moreover, the IC50 at B-Raf (mean ± SD of two independent experiments, read-out: In vitro Raf kinase inhibition IC50 B-Raf) turned out to be 0.216 ± 0.0436 µM. Also, the inhibition at 1 µM at C-Raf (setting [3]) came out at 92.5%. At C-Raf (mean ± SD of two independent experiments, read-out: In vitro Raf kinase inhibition IC50 C-Raf), the IC50 was determined as 0.022 ± 0.0008 µM. For the same compound, at B-Raf (V600E) (fixed concentration 1 μM, mean of two independent experiments, B-Raf (V599E)), the inhibition at 1 µM is 88.2%. Further, the IC50 at B-Raf (V600E) (mean ± SD of two independent experiments, read-out: In vitro Raf kinase inhibition IC50 B-Raf(V600E)) came to 0.07 ± 0.0004 µM. Also, in the data set with HepG2, the IC50 amounted to 5.02 ± 0.06 µM. For the same compound, the IC50 in the data set with Huh7 was 4.77 ± 0.09 µM. Also, the IC50 in the data set with Hep3B is 6.49 ± 0.12 µM. Besides, at A-Raf, the inhibition at 1 µM amounted to 84.6%. For the same compound, the IC50 at A-Raf (mean ± SD of two independent experiments, read-out: In vitro Raf kinase inhibition IC50 A-Raf) is 0.057 ± 0.0086 µM. Further, in the data set on Hep3B cells, the inhibition at 1 µM turned out to be 38.3% and the inhibition at 10 µM is 55.6%. Besides, in the data set on Huh7 cells, the inhibition at 1 µM is 23.8% and the inhibition at 10 µM came out at 44.2%. For the same compound, the inhibition at 1 µM on VEGFR-2 tyrosine kinase is approximately -6%. For the same compound, in data set [1] (setting [4]), the CC50 at 48 h is more than 10 µM. In addition, in data set [1] (setting [5]), the 50% cytotoxic concentration (CC50) at 48 h is more than 10 µM.
For the compound `CNC(=O)c1cc(Oc2ccc(NC(=O)Nc3ccc(Cl)c(C(F)(F)F)c3)cc2)ccn1` [Sorafenib, reference compound], the inhibition at 1 µM came out at 97.6% at C-Raf, 93.7% at A-Raf, 43.6% with Hep3B cells and 59.7% with Huh7 cells. The IC50 in the data set with HepG2 was found to be 1.29 ± 0.02 µM; with Huh7, 1.17 ± 0.04 µM; in the data set on Hep3B, 1.22 ± 0.05 µM. Moreover, the inhibition at 10 µM with Hep3B cells is 56.4%; with Huh7 cells, 85.9%. Further, the “inhibition of tumour-induced angiogenesis (new vessel branches)” value in data set [2] is “significantly blocked”. The CC50 at 48 h in [1] (setting [4]) was approximately 4.1 µM; in [1] (setting [5]) it was approximately 4.4 µM. For the same compound, the CC50 in the data set with H6c7 is 4.36 ± 0.21 µM; in the data set on CCD841, 4.08 ± 0.58 µM.

The record behind these values is publication PMC8344761 (Journal of Enzyme Inhibition and Medicinal Chemistry, 2021).
